System: 695427-040-R-J1-PDC complex spheroid viability
Assay: Anticancer human tumor 695427-040-R-J1-PDC patient-derived colon adenocarcinoma cell line growth inhibition [POLQ]
Details: for IC50: curve of first compound; for viability, T/C: stronger effect = lower value
Experimental: Multicellular complex tumor spheroid response to Polymerase (POL) inhibitors (novobiocin, ART-558, RP6685) in combination with a variety of drugs and investigational agents in selected tumor cell lines
The POL inhibitors (novobiocin, ART-558, and RP6685) were evaluated both individually and in combination with standard of care and investigational anticancer small molecules within a complex spheroid model of solid tumors. . Complex spheroids include a stromal component modeled by human endothelial cells (HUVEC) and fibroblasts modeled by human mesenchymal stem cells (MSCs). The concentration ranges selected for each drug and investigational agent were based upon clinically achievable concentrations if the clinical Cmax of the agent was known.
Compounds. The drugs and investigational agents: novobiocin (NSC847541), ART-558 (NSC835418), RP-6685 (NSC848927), peposertib (NSC802822), ceralasertib (NSC780249), elimusertib (NSC800525), camonsertib (NSC841442), AZD-1390 (NSC803789), olaparib (NSC753686), talazoparib (NSC767125), rucaparib (NSC756644), sotorasib (NSC818433), MRTX-1133 (NSC836407), SN-38 (NSC673596), topotecan (NSC609699), epotoside (NSC141540), doxorubicin (NSC123127), gemcitabine (NSC613327), 5-fluorouracil (NSC19893), paclitaxel (NSC125973), vemurafenib (NSC761431), MSA-2 (NSC828583), SN-011 (NSC837082), adavosertib (NSC754352), prexasertib (NSC758257), carboplatin (NSC241240) and oxaliplatin (NSC266046), were obtained from the National Cancer Institute (NCI) Developmental Therapeutics Program Chemical Repository (21). The FDA-approved anticancer drug set is available from the Developmental Therapeutics Program at https://dtp.cancer.gov/organization/dscb/obtaining/. […] The stock solutions were prepared in dimethyl sulfoxide (DMSO, Sigma-Aldrich, St. Louis, MO, cat. D2650), except for the platinum compounds which were prepared in saline (Quality Biological, Gaithersburg, MD, cat. 114-055-101), at 800-fold the tested concentration and stored at -70 degrees C prior to their use. All drugs and investigational agents were tested over a range starting from a high concentration at or near the clinical Cmax and decreasing in half-log increments. If the clinical Cmax for an agent had not been determined, the highest concentration tested was 10 microM, except for SN-38, which was tested at a high concentration of 1 microM.
Cell Culture. All cells were maintained in an incubator at 37 degrees C and 5% CO2 with 95% humidity. The PDC lines were cultured according to standard operating procedures established by the NCI PDMR (https://pdmr.cancer.gov). Table 3 of the manuscript, lists the cell lines along with the number of the three cell types plated to form the mct-spheroids and media for tumor cell growth. After thawing, all PDC lines, except 997537-175-T-J1-PDC and 415267-285-R-J2-PDC, were cultured in Matrigel-coated flasks prepared with a working solution of 1X Ham's F-12 nutrient mix, without supplementation (Thermo Fisher Scientific, cat. 11765054), 100 U/mL penicillin-streptomycin (Thermo Fisher Scientific, cat. 15140122), and 2.5% Matrigel (Corning Inc., Corning, NY, cat. 354248) for the first three passages. The two PDC lines 997537-175-T-J1-PDC and 415267-285-R-J2-PDC were cultured on uncoated flasks. The 857933-349-R-J2-PDC line was cultured in 6C/Colon 1B media containing advanced DMEM/F-12 (Thermo Fisher Scientific, cat. 12634028), 10 mM HEPES (Thermo Fisher Scientific, cat. 15630080), 1X GlutaMAX supplement (Thermo Fisher Scientific, cat. 35050061), 0.1 mg/mL primocin (InvivoGen, San Diego, CA, cat. ant-pm-2), 10% defined fetal bovine serum, heat inactivated (HyClone Laboratories Inc., Logan, UT, cat. SH30070.03HI), 50% L-WRN conditioned media (ATCC, cat. CRL-3276), 1.25 mM N-Acetyl-L-cysteine (Sigma-Aldrich, cat. A9165), 10 mM nicotinamide (Sigma-Aldrich, cat. N0636), 1X B-27 supplement (Thermo Fisher Scientific, cat. 17504044), 1X N-2 supplement (Thermo Fisher Scientific, cat. […]
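Further: spheroids exposed to compounds for seven days.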
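Wherever viability, T/C is given: 100% = DMSO vehicle control viability.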

Compound: C=CCn1c(=O)c2cnc(Nc3ccc(N4CCN(C)CC4)cc3)nc2n1-c1cccc(C(C)(C)O)n1 + Nc1ccc(C#CCN(C(=O)Cc2ncc(C(F)(F)F)cc2C(F)(F)F)c2ccc(F)cc2)nn1
- IC50 (second compound 0.0316 µM): > 1000 nM
- IC50 (second compound 0.1 µM): > 1000 nM
- IC50 (second compound 0.316 µM): > 1000 nM
- IC50 (second compound 1 µM): > 1000 nM
- IC50 (second compound 3.16 µM): > 1000 nM
- IC50 (second compound 10 µM): > 1000 nM
- viability, T/C (second compound 0.0316 µM, first compound 0.00316 µM): 101%
- viability, T/C (second compound 0.0316 µM, first compound 0.01 µM): 99.5%
- viability, T/C (second compound 0.0316 µM, first compound 0.0316 µM): 112%
- viability, T/C (second compound 0.0316 µM, first compound 0.1 µM): 101%
- viability, T/C (second compound 0.0316 µM, first compound 0.316 µM): 96.7%
- viability, T/C (second compound 0.0316 µM, first compound 1 µM): 74.6%
- viability, T/C (second compound 0.1 µM, first compound 0.00316 µM): 106%
- viability, T/C (second compound 0.1 µM, first compound 0.01 µM): 101%
- viability, T/C (second compound 0.1 µM, first compound 0.0316 µM): 94.8%
- viability, T/C (second compound 0.1 µM, first compound 0.1 µM): 96.9%
- viability, T/C (second compound 0.1 µM, first compound 0.316 µM): 99.9%
- viability, T/C (second compound 0.1 µM, first compound 1 µM): 78%
- viability, T/C (second compound 0.316 µM, first compound 0.00316 µM): 113%
- viability, T/C (second compound 0.316 µM, first compound 0.01 µM): 107%
- viability, T/C (second compound 0.316 µM, first compound 0.0316 µM): 101%
- viability, T/C (second compound 0.316 µM, first compound 0.1 µM): 97.7%
- viability, T/C (second compound 0.316 µM, first compound 0.316 µM): 91.4%
- viability, T/C (second compound 0.316 µM, first compound 1 µM): 81%
- viability, T/C (second compound 1 µM, first compound 0.00316 µM): 104%
- viability, T/C (second compound 1 µM, first compound 0.01 µM): 96%
- viability, T/C (second compound 1 µM, first compound 0.0316 µM): 96.4%
- viability, T/C (second compound 1 µM, first compound 0.1 µM): 94.2%
- viability, T/C (second compound 1 µM, first compound 0.316 µM): 93.8%
- viability, T/C (second compound 1 µM, first compound 1 µM): 71.7%
- viability, T/C (second compound 3.16 µM, first compound 0.00316 µM): 98.6%
- viability, T/C (second compound 3.16 µM, first compound 0.01 µM): 101%
- viability, T/C (second compound 3.16 µM, first compound 0.0316 µM): 107%
- viability, T/C (second compound 3.16 µM, first compound 0.1 µM): 98.7%
- viability, T/C (second compound 3.16 µM, first compound 0.316 µM): 85.8%
- viability, T/C (second compound 3.16 µM, first compound 1 µM): 74.2%
- viability, T/C (second compound 10 µM, first compound 0.00316 µM): 91.8%
- viability, T/C (second compound 10 µM, first compound 0.01 µM): 93.7%
- viability, T/C (second compound 10 µM, first compound 0.0316 µM): 85.8%
- viability, T/C (second compound 10 µM, first compound 0.1 µM): 99.4%
- viability, T/C (second compound 10 µM, first compound 0.316 µM): 81.8%
- viability, T/C (second compound 10 µM, first compound 1 µM): 65.3%
